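The compound was tested at five concentrations on cells cultured in 96-well plates, with a 48-hour exposure period. TGI is the concentration that stops growth completely.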
How the values were obtained:
Assay in all cases: growth of human tumour cells (NCI), 48 h
[1] = system: NCI-H460 lung
[2] = system: RPMI-8226 leukemia
[3] = system: SW-620 colon
[4] = system: ACHN renal
[5] = system: EKVX NSCLC
[6] = system: OVCAR-3 ovarian
[7] = system: HOP-92 NSCLC
[8] = system: MDA-MB-231 breast
[9] = system: T-47D breast
[10] = system: A498 renal
[11] = system: HL-60(TB) leukemia
[12] = system: UACC-62 melanoma

Compound | TGI [1] [µM] | TGI [2] [µM] | TGI [3] [µM] | TGI [4] [µM] | TGI [5] [µM] | TGI [6] [µM] | TGI [7] [µM] | TGI [8] [µM] | TGI [9] [µM] | TGI [10] [µM] | TGI [11] [µM] | TGI [12] [µM]
O=C1c2cc3c(cc2CC12Cc1cc4c(cc1C2=O)CCC4)CCCC3 (stereo unspecified) | > 100 | > 100 | > 100 | > 100 | > 100 | > 100 | > 100 | > 100 | > 100 | > 100 | > 100 | 
CC(C)=CCS(=O)c1ccccc1NC1=CC(=O)CC(C)(C)C1 (stereo unspecified) | > 100 | > 100 | > 100 | > 100 | > 100 | > 100 | > 100 | > 100 | > 100 | > 100 | > 100 | > 100
COc1cccc(OC)c1/C=C1\OC(=O)c2cccc(OC)c21 | > 100 | > 100 | > 100 | > 100 | > 100 | 13.5 | > 63 | > 100 | > 100 | 32.3 | > 19.7 | > 31
Cc1ccc(S(=O)(=O)C2=Cc3ccc(C(F)(F)F)cc3C2(O)c2cccc(C(F)(F)F)c2)cc1 (stereo unspecified) | 6.9 | > 23 | 3.85 | 7.64 | 9.83 | 3.01 | 4.17 | 5.06 | 11 | 3.83 | 3.66 | 5.71
O=C1NC(=O)C(c2c[nH]c3cc(Br)ccc23)=C1c1cn(C(c2ccccc2)(c2ccccc2)c2ccccc2)cn1 | 31.4 | 36.8 | > 100 | > 100 | 29.1 | > 100 | 30.3 | 21.4 | 93 | 37.2 | 39.5 | > 100
CC(=O)OC1CC2c3cccc4c3C(CC2N(C)C1=O)CN4C(=O)c1ccccc1 (stereo unspecified) |  | > 100 | > 100 | 55.5 | 83.1 | 30.1 | 34.8 | 52.4 | > 100 | 74.6 | 44 | 50.3
CC1=CC(C2/C(=N/O)C=C(C)CC2(C)C)C(O)C(C)(C)C1 (stereo unspecified) | 43.1 | 33.6 | 41.8 | 34 | 31.4 | 23.3 | 27.5 | 31.6 | 28.1 | 33.3 | 37.2 | 29.4
C=CCNC1=C2C[C@@H](C)C[C@@H](OC)[C@@H](OC(=O)CCCN)[C@H](C)/C=C(\C)[C@@H](OC(N)=O)[C@H](OC)/C=C\C=C(/C)C(=O)NC(=CC1=O)C2=O | 59 | 46.9 | > 60 | 38.9 | 39.1 | 32.8 | 29.3 | 33.5 | > 67.2 | 36.3 | 19.7 | 31.8
COc1ccc(CCNC2=CC(=O)c3ncccc3C2=O)cc1OC | 1.75 | > 43 | 5.54 | 19.8 | 29.6 | 5.12 | 35.8 | 3.72 | 24.7 | 3.39 | 10.6 | 1.24
N#CC(NNC(=O)Cc1ccccc1)c1ccccc1O (stereo unspecified) | > 100 | > 100 | > 100 | 43.8 | > 100 | > 43.6 | > 92.1 | > 72 | > 65.3 | > 80.3 | 36 | 28.8
CC1=C(C(N)=O)C(c2ccncc2)C(C#N)=C2SCC(=O)N12 (stereo unspecified) | > 100 | > 100 | > 100 | > 100 | > 100 | > 100 | > 100 | > 100 | > 100 | > 100 | > 100 | > 100
C=CCN1C[C@H](C)N([C@H](c2ccc(C(=O)N(CC)CCO)cc2)c2cccc(OC)c2)C[C@H]1C |  | > 100 | > 100 | > 100 | > 100 | 54.6 | > 100 | > 100 | > 100 | > 100 | > 100 | > 100
CN(Nc1cc(=O)[nH]c(=O)[nH]1)c1ccccc1 | > 100 | > 100 | > 100 | > 100 | > 100 | > 100 | > 100 | > 100 | > 100 | > 100 | > 100 | > 100
O=C(CC(c1ccccc1)N1CCCCC1)c1ccccc1 (stereo unspecified) | 26.6 | 5.23 | 18.7 | 30.7 | 34.5 | 23.9 | 32.7 | 34.6 | 37.6 | 29.3 | 33.7 | 30.7
COc1cc(/C=C2\C[C@H]3[C@@H]4CC=C5C[C@@H](O)CC[C@]5(C)[C@H]4CC[C@]3(C)C2=O)cc(OC)c1OC | > 100 | 45.4 | > 100 | > 100 | > 100 | > 100 | > 100 | 81.1 | 64.2 | > 100 | 2.25 | > 100
CCC1OC2C(CC=C(C)C)=C3OC(C)(O)C(C)(CC)C(OC(=O)c4ccccc4)C3=C3OC(=O)C=C1C32 (stereo unspecified) | > 100 | > 100 | > 100 | > 100 | > 100 | > 100 | > 100 | 49.1 | > 100 | > 100 | > 100 | > 100
O=C(O)c1nc(-c2ccccn2)c(-c2ccccn2)nc1C(=O)O | 4.85 | > 100 | 18.8 | 7.35 | 13.6 | 12.4 | 26.9 | 30.5 | 24.1 | 4.12 | 18.3 | 6.27
CCOC(=O)C(N)CSC(=O)NC (stereo unspecified) | 397 | 214 | 308 | 510 | 546 | 290 | 341 | 340 | 773 | 594 | 272 | 304
COc1ccc2c3c1O[C@H]1C(O)CCC4(O)[C@@H](C2)NCC[C@]314 (stereo partly specified) |  | > 100 | > 100 | > 100 | > 100 | > 100 | > 100 | > 100 | > 100 | > 100 | > 100 | > 100

Compound | TGI [1] [µM] | TGI [2] [µM] | TGI [3] [µM] | TGI [4] [µM] | TGI [5] [µM] | TGI [6] [µM] | TGI [7] [µM] | TGI [8] [µM] | TGI [9] [µM] | TGI [10] [µM] | TGI [11] [µM] | TGI [12] [µM]
CCN(CC)c1ccc2cc(-c3nnc(-c4ccccc4)o3)c(=O)oc2c1 | > 51.3 | > 100 | > 100 | > 100 | > 100 | 37.1 | > 100 | > 77.9 | > 71.4 | > 100 | 70.6 | > 100
CCC1c2[nH]c3ccccc3c2C[C@H]2C(=O)NC(COC(C)(C)C)C(=O)N12 (stereo partly specified) | > 100 | > 100 | > 100 | > 100 | > 100 | > 100 | 90.6 | > 100 | > 100 | > 100 | 60.9 | > 100
CC(=O)c1csc2c1C(=O)c1scc(C(C)=O)c1C2=O | 2.35 | 3.14 | 3.73 | 3.24 | 3.36 | 0.646 | 3.92 | 1.43 | 1.2 | 2.93 | 0.43 | 3.56
c1cc(-c2ncc(-c3ccc4c(c3)CCCO4)o2)ccn1 |  | 30.4 |  | > 100 | > 100 | 29.9 | 92.5 | > 100 | 63.7 | 59.6 | 16 | 66.3
CC1(C)OCC2OC3(c4nc(C#N)c(N)o4)OC(C)(C)OC3C2O1 (stereo unspecified) | > 100 | > 100 | > 100 | > 100 | > 100 | > 100 | > 100 | > 100 | > 100 | > 100 | > 100 | > 100
CC(=O)c1sc2c(c1OC(=O)c1cccs1)c(=O)n(-c1ccccc1)c(=S)n2-c1ccccc1 | 25.3 | 20.3 | 45.9 | 11.1 | 51.1 | 50.4 | 22.1 | 32.2 | > 100 | 15.9 | 52.2 | 37.9
CC(=O)N(C(=O)CC(=O)N/N=C\c1ccc(Br)c(N(CCC#N)CCC#N)c1)c1ccc(Cl)cc1 | > 100 | > 100 | > 100 | > 100 | > 100 | > 100 | > 100 | > 100 | > 100 | > 100 | > 100 | > 100
CO[C@H]1[C@@H](O)[C@@H](C)O[C@@H](O[C@H]2CC[C@@]3(C)[C@H](CC[C@@H]4[C@@H]3CC[C@]3(C)[C@@H](C5=CC(=O)OC5)[C@@H](OC(C)=O)C[C@]43O)C2)[C@@H]1O | 0.0617 | > 16.2 | > 50 | 0.0575 | 0.0568 | 0.0905 | 0.577 | 0.972 | 0.435 | 1.27 | 0.332 | 0.215
N#Cc1sc2nc(/C=C3/C=CC=CC3=O)c(O)n2c1N |  | 81.2 | > 100 | > 100 | > 100 | > 100 | > 100 | > 100 | > 100 | > 100 | 44.3 | 
Cc1cccc(/C=N/NC(=S)NCCc2ccccn2)n1 | > 100 | > 93 | > 100 | > 74.5 | > 100 | > 100 | > 100 | > 100 | > 100 | 87.5 | 41.7 | 56.7
O=C1/C(=C\c2ccc([N+](=O)[O-])o2)SC2N=C(COc3ccc(Cl)cc3)NN12 (stereo unspecified) | 39.5 | > 100 | 9.92 | 3.67 | 22.3 | 18.9 | 4.49 | 15.9 | 7.54 | 44.3 | 6.03 | 
O=c1cc(-c2ccccc2)[nH]c2cc3c(cc12)OCO3 | > 57.8 | > 80 | > 100 | > 100 | > 100 | 22.2 | > 56.5 | > 100 | > 100 | 63.1 | 53 | > 90.7
COc1ccc(C[N+]23C(CC[C@H]2c2ccccc2)CC[C@H]3c2ccccc2)cc1 (stereo partly specified) |  | 27 | > 100 | > 100 | 69.8 | 37 | 39.5 | 82.4 | 61.5 | > 100 | 24.7 | 
CC1=C(Br)C(Br)=C(C)S1=O | 34.7 | 24 | > 100 | 90.9 | 36.9 | 23.9 | > 100 | 61.5 | > 100 | 96.5 | 18.1 | 85.8
CCN(CC)CCn1nc(N)c2nc3cc(Cl)ccc3nc21 | > 100 | > 100 | > 100 | > 100 | > 100 |  | > 100 | > 100 | > 100 | > 100 | > 100 | > 100
COc1cccc(CCn2c(N)c(-c3ccccc3)c3ccc([N+](=O)[O-])cc3c2=O)c1 | 30 | 5 | > 85.6 | 15 | 24.8 | 6.51 | 31.2 | 29.6 | 5.6 | 5.34 | 27.3 | 30.7
C/C(=N\Nc1cc(CN2CCCC2)c(-c2ccc(Cl)cc2)nn1)C(=O)O | > 100 | > 100 | > 100 | > 100 | > 100 | > 100 | > 100 | > 100 | > 100 | > 100 | > 100 | > 100
CCOC(=O)C1=C(Nc2cccc(OC)c2)OCC1=O | > 100 | > 100 | > 100 | > 100 | > 100 |  | > 100 | > 100 | > 100 | > 100 | > 100 | > 100

Source: PubChem BioAssay (NCI)
